Data taken from patent publication US20240294522A1 (Lead Discovery Center GmbH, priority 2021, published 2024).

Tests used:
[1] = system: neonatal rat ventricular cardiac myocytes (NRVCMs); assay: In vitro cardiomyocyte hypertrophy assay; type: cell-based, Wistar rats; details: inhibition of cellular hypertrophy, NRVCMs stimulated with phenylephrine 20 μM and leukemia inhibitory factor 50 ng/ml, 96 h, read-out: Hypertrophy Assay (IC-50)
Experimental: 5-6 days old Wistar rats were sacrificed by decapitation and neonatal rat ventricular cardiac myocytes (NRVCMs) were prepared using the Neonatal heart dissociation kit (Miltenyi Biotec) according to the manufacturer's instructions. The cardiac single cell suspension was resuspended in DMEM low glucose medium supplemented with 2% fetal bovine serum (FBS) and 50 μg/ml penicillin/streptomycin. 1500 cells/well were seeded on 0.1% gelatin-coated 384-well plates and incubated in medium at 37° C. and 5% CO2 for 24 h prior to the addition of test compounds to the cells at titrated concentrations. Cellular hypertrophy was then stimulated by adding phenylephrine and leukemia inhibitory factor at final concentrations of 20 μM and 50 ng/ml, respectively, and the cells were incubated for another 96 h. For immunocytochemistry, cells were fixed with 4% formaldehyde on day 5 of compound treatment and cardiomyocytes were stained with antibodies against a-actinin while cell nuclei were stained with DAPI. Image acquisition and phenotypic analysis was performed using an Image-Xpress Micro XL automated microscope (Molecular Devices).
Inhibition of cellular hypertrophy is indicated as IC50 [nM]. Compounds having an activity designated as “A” provided an IC50≤500 nM; compounds having an activity designated as “B” provided an 500 nM<IC50≤1000 nM; compounds having an activity designated as “C” provided an IC50>1000 nM.

GRK2 = biological target: T1, GRK2 (Homo sapiens, UniProt P25098); assay: Lance Kinase Activity Assay, GRK2; details: biochemical Lance kinase activity assay; class symbols A-F; read-out: GRK2 LANCE Assay (IC-50)
T1 construct: purchased Thermo Scientific
T1 sequence (P25098 1-689): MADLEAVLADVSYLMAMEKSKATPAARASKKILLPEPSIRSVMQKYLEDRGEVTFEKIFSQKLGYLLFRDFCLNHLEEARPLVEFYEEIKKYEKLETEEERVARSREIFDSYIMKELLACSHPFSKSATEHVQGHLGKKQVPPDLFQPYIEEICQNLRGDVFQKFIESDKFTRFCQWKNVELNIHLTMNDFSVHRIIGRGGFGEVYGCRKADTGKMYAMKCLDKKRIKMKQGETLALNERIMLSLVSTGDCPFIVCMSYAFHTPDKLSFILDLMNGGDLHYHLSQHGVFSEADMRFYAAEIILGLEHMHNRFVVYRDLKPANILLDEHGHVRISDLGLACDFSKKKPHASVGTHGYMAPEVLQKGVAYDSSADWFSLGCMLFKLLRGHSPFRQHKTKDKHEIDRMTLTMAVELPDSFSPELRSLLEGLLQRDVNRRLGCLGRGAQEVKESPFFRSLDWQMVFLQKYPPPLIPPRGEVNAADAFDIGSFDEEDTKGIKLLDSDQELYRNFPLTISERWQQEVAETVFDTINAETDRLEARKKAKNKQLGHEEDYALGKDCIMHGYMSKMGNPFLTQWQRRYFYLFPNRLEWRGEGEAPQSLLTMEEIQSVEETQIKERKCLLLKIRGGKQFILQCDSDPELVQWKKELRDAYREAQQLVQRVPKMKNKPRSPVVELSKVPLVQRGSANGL
How it was run: (§1)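 IC50s from sigmoidal dose-response over 0.0025-10 μM compound, with phosphorylated ULight substrate detected by Eu anti-phospho antibody FRET after EDTA quench.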

GRK5 = biological target: T2, GRK5 (Homo sapiens, UniProt P34947); assay: Lance Kinase Activity Assay, GRK5; details: biochemical Lance kinase activity assay; class symbols A-F; read-out: GRK5 LANCE Assay (IC-50)
T2 construct: purchased Thermo Scientific
How it was run: as §1

T2 sequence (P34947 whole entry): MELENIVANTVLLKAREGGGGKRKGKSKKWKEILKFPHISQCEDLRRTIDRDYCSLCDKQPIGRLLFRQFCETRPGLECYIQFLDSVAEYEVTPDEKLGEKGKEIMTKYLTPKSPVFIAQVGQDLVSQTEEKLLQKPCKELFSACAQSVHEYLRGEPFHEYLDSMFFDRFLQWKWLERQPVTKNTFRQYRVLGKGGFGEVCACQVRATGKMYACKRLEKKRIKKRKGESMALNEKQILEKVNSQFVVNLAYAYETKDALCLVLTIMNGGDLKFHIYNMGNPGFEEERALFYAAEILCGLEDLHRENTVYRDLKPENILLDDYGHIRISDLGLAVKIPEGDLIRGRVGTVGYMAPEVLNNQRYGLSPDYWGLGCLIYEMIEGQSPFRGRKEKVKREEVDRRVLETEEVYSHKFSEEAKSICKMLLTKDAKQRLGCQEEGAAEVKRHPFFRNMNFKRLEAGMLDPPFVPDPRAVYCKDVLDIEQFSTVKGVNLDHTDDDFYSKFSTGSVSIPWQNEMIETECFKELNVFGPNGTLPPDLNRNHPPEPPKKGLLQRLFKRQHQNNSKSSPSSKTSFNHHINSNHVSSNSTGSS

Compound	IC50 [1] [nM]	IC50 (GRK2) [nM]	IC50 (GRK5) [nM]
COc1ccc([C@@H](C)NC(=O)/C(C#N)=C/c2c[nH]c3ncc(-c4cnn(C5CCNCC5)c4)cc23)cc1OC [Example 89, (R,E)-2-cyano-N-(1-(3,4-dimethoxyphenyl)ethyl)-3-(5-(1-(piperidin-4-yl)-1H-pyrazol-4-yl)-1H-pyrrolo[2,3-b]pyridin-3-yl)acrylamide]	> 1000	1000 to 10000	≤ 50
COc1ccc([C@@H](CO)NC(=O)/C(C#N)=C/c2c[nH]c3ncc(-c4cnn(C)c4)cc23)cc1OC [Example 92, (S,E)-2-cyano-N-(1-(3,4-dimethoxyphenyl)-2-hydroxyethyl)-3-(5-(1-methyl-1H-pyrazol-4-yl)-1H-pyrrolo[2,3-b]pyridin-3-yl)acrylamide]	> 1000	1000 to 10000	≤ 50
COc1cc([C@@H](C)NC(=O)/C(C#N)=C/c2c[nH]c3ncc(-c4cnn(C)c4)cc23)ccc1F [Example 94, (R,E)-2-cyano-N-(1-(4-fluoro-3-methoxyphenyl)ethyl)-3-(5-(1-methyl-1H-pyrazol-4-yl)-1H-pyrrolo[2,3-b]pyridin-3-yl)acrylamide]	≤ 500	50 to 100	≤ 50
COc1ccc([C@@H](C)NC(=O)/C(C#N)=C/c2c[nH]c3ncc(OCCN(C)C)cc23)cc1OC [Example 104, (R,E)-2-cyano-N-(1-(3,4-dimethoxyphenyl)ethyl)-3-(5-(2-(dimethylamino)ethoxy)-1H-pyrrolo[2,3-b]pyridin-3-yl)acrylamide]	> 1000	1000 to 10000	≤ 50
COc1ccc([C@@H](C)NC(=O)/C=C/c2c[nH]c3ncc(-c4ccc(N5CCN(C)CC5)cc4)cc23)cc1OC [Example 113, (R,E)-N-(1-(3,4-dimethoxyphenyl)ethyl)-3-(5-(4-(4-methylpiperazin-1-yl)phenyl)-1H-pyrrolo[2,3-b]pyridin-3-yl)acrylamide]	≤ 500	500 to 1000	≤ 50
COc1ccc([C@@H](C)NC(=O)/C(C#N)=C/c2c[nH]c3ncc(-c4ccc(CN(C)C)cc4)cc23)cc1OC [Example 117, (R,E)-2-cyano-N-(1-(3,4-dimethoxyphenyl)ethyl)-3-(5-(4-((dimethylamino)methyl)phenyl)-1H-pyrrolo[2,3-b]pyridin-3-yl)acrylamide]	500 to 1000	1000 to 10000	≤ 50
COc1ccc([C@@H](C)NC(=O)/C(C#N)=C/c2c[nH]c3ncc(-c4ccc(F)c(S(C)(=O)=O)c4)cc23)cc1OC [Example 169]	500 to 1000	1000 to 10000	≤ 50
COc1ccc([C@@H](C)NC(=O)/C=C/c2c[nH]c3ncc(-c4cnn5ccccc45)cc23)cc1OC [Example 205, (R,E)-N-(1-(3,4-dimethoxyphenyl)ethyl)-3-(5-(pyrazolo[1,5-a]pyridin-3-yl)-1H-pyrrolo[2,3-b]pyridin-3-yl)acrylamide]	500 to 1000	1000 to 10000	≤ 50
COc1ccc([C@@H](C)NC(=O)/C=C/c2c[nH]c3ncc(-c4cnn(CCN(C)C)c4)cc23)cc1OC [Example 213, (R,E)-N-(1-(3,4-dimethoxyphenyl)ethyl)-3-(5-(1-(2-(dimethylamino)ethyl)-1H-pyrazol-4-yl)-1H-pyrrolo[2,3-b]pyridin-3-yl)acrylamide]	> 1000	1000 to 10000	≤ 50
COc1ccc([C@@H](C)NC(=O)/C=C/c2c[nH]c3ncc(-c4ccc(S(C)(=O)=O)cc4)cc23)cc1OC [Example 219, (R,E)-N-(1-(3,4-dimethoxyphenyl)ethyl)-3-(5-(4-(methylsulfonyl)phenyl)-1H-pyrrolo[2,3-b]pyridin-3-yl)acrylamide]	> 1000	1000 to 10000	≤ 50
COc1cc(C(C)NC(=O)/C=C/c2c[nH]c3ncc(-c4cnn(C)c4)cc23)ccc1[S+](C)[O-] (stereo not shown) [Example 255, (E)-N-(1-(3-methoxy-4-(methylsulfinyl)phenyl)ethyl)-3-(5-(1-methyl-1H-pyrazol-4-yl)-1H-pyrrolo[2,3-b]pyridin-3-yl)acrylamide]	–	> 10000	100 to 500
COc1cc(C(C)NC(=O)/C(C#N)=C/c2c[nH]c3ncc(-c4cnn(C)c4)cc23)ccc1[S+](C)[O-] (stereo not shown) [Example 256, (E)-2-cyano-N-(1-(3-methoxy-4-(methylsulfinyl)phenyl)ethyl)-3-(5-(1-methyl-1H-pyrazol-4-yl)-1H-pyrrolo[2,3-b]pyridin-3-yl)acrylamide]	–	1000 to 10000	50 to 100
C[C@@H](NC(=O)/C=C/c1c[nH]c2ncc(-c3cnn(C)c3)cc12)c1ccc(F)c(F)c1 [Example 257, (R,E)-N-(1-(3,4-difluorophenyl)ethyl)-3-(5-(1-methyl-1H-pyrazol-4-yl)-1H-pyrrolo[2,3-b]pyridin-3-yl)acrylamide]	–	100 to 500	≤ 50
C[C@@H](NC(=O)/C(C#N)=C/c1c[nH]c2ncc(-c3cnn(C)c3)cc12)c1ccc(F)c(F)c1 [Example 258, (R,E)-2-cyano-N-(1-(3,4-difluorophenyl)ethyl)-3-(5-(1-methyl-1H-pyrazol-4-yl)-1H-pyrrolo[2,3-b]pyridin-3-yl)acrylamide]	–	100 to 500	≤ 50
COc1ccc([C@@H](C)NC(=O)/C=C/c2c[nH]c3ncc(-c4cc(S(C)(=O)=O)ccn4)cc23)cc1OC [Example 259, (R,E)-N-(1-(3,4-dimethoxyphenyl)ethyl)-3-(5-(4-(methylsulfonyl)pyridin-2-yl)-1H-pyrrolo[2,3-b]pyridin-3-yl)acrylamide]	–	1000 to 10000	≤ 50
Cc1noc2ccc([C@@H](C)NC(=O)/C=C/c3c[nH]c4ncc(-c5cnn(C)c5)cc34)cc12 [Example 260, (R,E)-3-(5-(1-methyl-1H-pyrazol-4-yl)-1H-pyrrolo[2,3-b]pyridin-3-yl)-N-(1-(3-methylbenzo[d]isoxazol-5-yl)ethyl)acrylamide]	–	50 to 100	≤ 50
Cc1nn(C)c2cc([C@@H](C)NC(=O)/C(C#N)=C/c3c[nH]c4ncc(-c5cnn(C)c5)cc34)ccc12 [Example 261, (R,E)-2-cyano-N-(1-(1,3-dimethyl-1H-indazol-6-yl)ethyl)-3-(5-(1-methyl-1H-pyrazol-4-yl)-1H-pyrrolo[2,3-b]pyridin-3-yl)acrylamide]	–	> 10000	≤ 50
Cc1nn(C)c2ccc([C@@H](C)NC(=O)/C(C#N)=C/c3c[nH]c4ncc(-c5cnn(C)c5)cc34)cc12 [Example 262, (R,E)-2-cyano-N-(1-(1,3-dimethyl-1H-indazol-5-yl)ethyl)-3-(5-(1-methyl-1H-pyrazol-4-yl)-1H-pyrrolo[2,3-b]pyridin-3-yl)acrylamide]	–	> 10000	≤ 50
COc1ccc([C@@H](C)NC(=O)/C=C/c2c[nH]c3ncc(-c4cccc([S+]([O-])C(F)(F)F)c4)cc23)cc1OC (stereo partly drawn) [Example 263, (E)-N-((R)-1-(3,4-dimethoxyphenyl)ethyl)-3-(5-(3-((trifluoromethyl)sulfinyl)phenyl)-1H-pyrrolo[2,3-b]pyridin-3-yl)acrylamide]	–	> 10000	≤ 50
COc1ccc([C@@H](C)NC(=O)/C=C/c2c[nH]c3ncc(-c4cccc(S(=O)(=O)C(F)(F)F)c4)cc23)cc1OC [Example 264, (R,E)-N-(1-(3,4-dimethoxyphenyl)ethyl)-3-(5-(3-((trifluoromethyl)sulfonyl)phenyl)-1H-pyrrolo[2,3-b]pyridin-3-yl)acrylamide]	–	> 10000	≤ 50
COc1cc(C(C)NC(=O)/C=C/c2c[nH]c3ncc(-c4cnn(C)c4)cc23)cnc1OC (stereo not shown) [Example 265, (E)-N-(1-(5,6-dimethoxypyridin-3-yl)ethyl)-3-(5-(1-methyl-1H-pyrazol-4-yl)-1H-pyrrolo[2,3-b]pyridin-3-yl)acrylamide]	–	> 10000	50 to 100
